Where a name gives a salt, the structure may show the parent alone.
How the values were obtained:
[1] = tested on: Ba/F3-TEL-FGFR3 cell line; test: Ba/F3-TEL-FGFR3 cell proliferation assay; format: cell-based; conditions: 72 hours, Alamar Blue; read-out: IC50 against Ba/F3-TEL-FGFR3 cell line
Protocol: Ba/F3-TEL-FGFR3 & Ba/F3 (WT) Cell Proliferation Assays
Stably transfected Ba/F3-TEL-FGFR3 cells were plated out into black 96-well tissue culture plates with clear bottoms in RPMI medium containing 10% FBS and 0.25 mg/ml G418 at a density of 5×10^3 cells/well (200 μl per well). The parental wild-type Ba/F3 cells (DSMZ no.: ACC 300) were plated out into black 96-well tissue culture plates with clear bottoms in RPMI medium containing 10% FBS and 2 ng/ml mouse IL-3 (R&D Systems) at a density of 2.5×10^3 cells/well (200 μl per well). Plates were placed in an incubator overnight before adding the compounds the following day. Dilutions of compounds were made in DMSO starting at 10 mM and were diluted into the wells to give a final DMSO concentration of 0.1% in assay. Compounds were left on the cells for 72 hours before the plates were removed from the incubator and 20 μl of Alamar Blue™ (Biosource) was added to each well. Plates were placed in the incubator for 4-6 hours before reading plates at 535 nm (excitation)/590 nm (emission) on a Fusion plate reader (Packard).
In particular, compounds of the invention were tested against the Ba/F3-TEL-FGFR3 cell line.

[2] = tested on: LP-1 cell line (DSMZ no.: ACC 41) derived from human multiple myeloma; test: Cell-based pERK ELISA in LP-1 cells; conditions: LP-1, FGF-1/Heparin stimulated, for the 1 μM bound: or at least 50% inhibition at a concentration of 1 μM
Protocol: Enzyme buffer A: 8 mM MOPS, pH 7.0, 0.2 mM EDTA, 10 mM MgAcetate Enzyme buffer B: 8 mM MOPS, pH 7.0, 0.2 mM EDTA, 2.5 mM MnCl2, 10 mM MgAcetate Enzyme buffer C: 8 mM Mops, pH 7.0, 0.2 mM EDTA, 10 mM MnCl2, 10 mM MgAcetate. Cell-Based pERK ELISA Method
LP-1 or JIM-1 multiple myeloma cells were seeded in 96 well plates at 1×10^6 cells/ml in 200 ul per well in serum free media. HUVEC cells were seeded at 2.5×10^5 cells/ml and allowed to recover for 24 h prior to transfer to serum free media. Cells were incubated for 16 h at 37° C. prior to the addition of a test compound for 30 minutes. Test compounds were administered at a 0.1% final DMSO concentration. Following this 30 minute incubation a FGF-1/Heparin (FGF-1 at 100 ng/ml final and Heparin at 100 ug/ml) mixture or VEGF^165 (100 ug/ml) was added to each of the wells for a further 5 minutes. The media was removed and 50 ul ERK ELISA lysis buffer (R and D Systems DuoSet ELISA for pERK and Total ERK #DYC-1940E, DYC-1018E) added. ELISA plates and standards were prepared according to the standard DuoSet protocols and the relative amounts of pERK to total ERK in each sample calculated according to the standard curve.
In particular, compounds of the invention were tested against the LP-1 cell line (DSMZ no.: ACC 41) derived from human multiple myeloma.

SMILES	IC50 [2] [µM]	melting point [°C]	other results
CN(C)C(=O)c1ccn2c(-c3cccc(NC(=O)NCC(F)(F)F)c3)cnc2c1 [Example 1, 3-[3-[3-(2,2,2-Trifluoroethyl)ureido]-phenyl}imidazo[1,2-a]pyridine-7-carboxylic acid dimethylamide Hydrochloride]	–	–	IC50 [1]: < 20 µM
CNC(=O)c1ccn2c(-c3cccc(NC(=O)NCC(F)(F)F)c3)cnc2c1 [Example 2, 3-[3-[3-(2,2,2-Trifluoroethyl)ureido]-phenyl}imidazo[1,2-a]pyridine-7-carboxylic acid methylamide]	< 20	–	–
O=C(NCC(F)(F)F)Nc1cccc(-c2cnc3cc(C(=O)N4CCC(O)C4)ccn23)c1 (stereo not shown) [Example 7, 1-{3-[7-(3-Hydroxy-pyrrolidine-1-carbonyl)-imidazo[1,2-a]pyridin-3-yl]-phenyl}-3-(2,2,2-trifluoro-ethyl)-urea]	< 20	–	–
CC(CO)NC(=O)c1ccn2c(-c3cccc(NC(=O)NCC(F)(F)F)c3)cnc2c1 (stereo not shown) [Example 17, 3-{3-[3-(2,2,2-Trifluoro-ethyl)-ureido]-phenyl}-imidazo[1,2-a]pyridine-7-carboxylic acid (2-hydroxy-1-methyl-ethyl)-amide]	< 20	–	–
Cn1cncc1NC(=O)c1ccn2c(-c3cccc(NC(=O)NCC(F)(F)F)c3)cnc2c1 [Example 18, 3-{3-[2,2,2-Trifluoro-ethyl)-ureido]-imidazo[1,2-a]pyridine-7-[5-(1-N-methyl-imidazole)]-amide]	–	260	–
O=C(NCC(F)(F)F)Nc1cccc(-c2cnc3cc(C(=O)NCCCc4cnc[nH]4)ccn23)c1 [Example 19, 3-{3-[2,2,2-Trifluoro-ethyl)-ureido]-imidazo[1,2-a]pyridine-7-[3-(1H-imidazol-4-yl)]-propanamide]	–	170	–
Cn1cncc1CNC(=O)c1ccn2c(-c3cccc(NC(=O)NCC(F)(F)F)c3)cnc2c1 [Example 20, 3-{3-[2,2,2-Trifluoro-ethyl)-ureido]-imidazo[1,2-a]pyridine-7-[5-(1-N-methyl-imidazole)]-methylamide]	–	> 260	–

Source: US8859583B2, “Bicyclic heterocyclic compounds as protein tyrosine kinase inhibitors” (Astex Therapeutics Limited, priority 2007, dated 2014)
